Laboratory results as given in patent US8304418B2, “Pyrazolopyrimidinone kinase inhibitor” (Agennix AG, priority 2007, dated 2012).
“And” between values parts separate entries of the source, which are not always exact repeats. Identical values can stand only once. Like-named read-outs stand apart in the source and are kept apart here.

What was measured:
[1] = test system: human A2780 ovarian tumor cells
[2] = test system: CDK4/6-specific phosphorylation of Rb on serine 780; assay: In-cell Rb phosphorylation (immunoblot); assay type: cell-based, human; conditions: 1 h, read-out: IC50 (uM) - Rb-5 phosphorylation
Excerpt: (§1) This set of assays represents CDKs involved in cell cycle progression (CDK1, 4/6), and the “regulatory CDK” (CDK9) which is involved in transcriptional regulation.
(§2) The following cancer cell lines were investigated in the course of these studies: A2780 (ovarian), HCT116 (colon), RPMI8226 (myeloma), SKMel28 (melanoma), Colo205 (colorectal), MDA-MB-435 (melanoma), MDA-MB-453 (breast, carcinoma), MDA-MB-468 (breast, adenocarcinoma), A549 (lung), Raji (lymphoma, Burkitt). Cell lines were obtained from public repositories.
CDK4/6-specific phosphorylation of Rb on serine 780 (Ser780phos). Asynchronous growing cells were treated with an appropriate concentration of test compound or DMSO for 1 hour. Proteins were extracted using the AllPrep RNA/Protein kit according to the manufacturer's recommendations (Qiagen, Germany). Rb was immunoprecipitated over night using Ab05 antibody (Oncogene Inc.). Proteins were separated by SDS-PAGE, blotted to PVDF membranes and analyzed with antibodies against total (sc-102; Santa Cruz) or Ser780-phosphorylated Rb proteins (Cell Signalling). Visualization and quantification was performed as above.

[3] = target: CDK6 (Homo sapiens, UniProt Q00534); assay: Biochemical CDK6 inhibition assay
CDK6, sequence (Q00534 whole entry): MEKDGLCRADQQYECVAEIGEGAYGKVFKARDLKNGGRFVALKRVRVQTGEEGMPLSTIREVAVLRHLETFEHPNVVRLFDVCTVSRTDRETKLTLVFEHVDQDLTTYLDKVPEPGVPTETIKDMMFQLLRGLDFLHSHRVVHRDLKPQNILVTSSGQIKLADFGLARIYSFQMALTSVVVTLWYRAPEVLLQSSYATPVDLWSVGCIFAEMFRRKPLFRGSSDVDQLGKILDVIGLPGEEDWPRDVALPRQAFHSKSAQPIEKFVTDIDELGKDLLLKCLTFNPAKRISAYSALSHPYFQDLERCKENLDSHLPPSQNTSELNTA
CDK6, sequence (P30281 whole entry partner): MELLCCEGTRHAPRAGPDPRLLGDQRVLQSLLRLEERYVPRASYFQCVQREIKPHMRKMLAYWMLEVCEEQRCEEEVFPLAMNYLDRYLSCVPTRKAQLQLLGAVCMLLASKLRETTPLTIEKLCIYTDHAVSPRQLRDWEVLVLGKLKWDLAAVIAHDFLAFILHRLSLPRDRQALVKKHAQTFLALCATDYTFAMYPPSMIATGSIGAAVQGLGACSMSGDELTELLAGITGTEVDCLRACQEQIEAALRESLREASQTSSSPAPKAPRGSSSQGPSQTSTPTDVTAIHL
Protocol: The assays used for determining the properties of the kinase inhibitors were performed in accordance with standard procedures well known to those skilled in the art. For example, assays for determining inhibitory activity on CDKs or in cellular assays are described in WO 00/218962, WO 2005/026129, and WO 2005/063765. Solubility assays at pH 7.4 were essentially performed as described by Avdeef, A. in Pharmacokinetic Optimization in Drug Research; Testa, B.; van de Waterbeemd, H.; Folkers, G.; Guy, R. Eds.; Wiley-VHC: Zurich, 2001; pp 305-326. PAMPA permeability assays at pH 7.4 were essentially performed as described in Kansy et al., J. Med. Chem. 41: 1007-10, 1998.

[4] = test system: HCT116 colon carcinoma cells; conditions: HCT116, 100 mg/kg po qdx10 (R547 suspension)
Protocol: (§3) Xenograft Tumor-Models: 100 athymic nu/nu female mice (6-8 weeks old) from CRL were allowed to acclimate for 4 days. […] The 3rd passage of cells with approximate 90% confluence was used for these experiments. Briefly, on Day 0, mice were inoculated with 0.1 ml (total 5×10^6 cells) of the respective cell-type as a cell suspension (50×10^6 cells/ml) by subcutaneous injection into the fat pad area near the mammary gland under light anesthesia. When the average tumor weight in all mice reached over 100 mg (day 10), 80 animals with an average tumor size of 130 mg were selected and were randomly divided into 8 groups.
(§4) A 20 G gavage needle was used for the oral treatment.
(§5) Tumor growth and body weight were monitored and recorded three times a week. Tumors were measured by determining the length and width of the tumor with a digital caliper. Tumor weight was estimated using the following formula: Tumor Weight (mg)=(w^2×1)×0.52 where w=width and l=length in mm of the tumor.
(§6) Experimental treatment may cause partial regression (PR) or complete regression (CR) of tumors. PR is defined when the tumor size is 50% or less than the starting (day 1) size but greater than 0.0 mg for three consecutive measurements during the course of the study. CR occurs when there is no measurable tumor mass for three consecutive measurements. Cures are defined when CR are maintained until the completion of the experiment.
(§7) Mice were sacrificed when their tumors reached the 1000 mm^3 endpoint volume. Treatment efficacy was determined as Log Cell Kill (LCK).
(§8) Toxic deaths are defined as deaths caused by compound treatment and not by advanced disease state. […] Non-tumor related deaths after this point are recorded, but not considered toxic deaths.
(§9) Briefly, the empirical distributions of T and Td were derived from B=1000 realisations of random selection of n individual animals with replacement from the set i=1, . . . , n of the appropriate group of mice containing n evaluable animals, estimating the mean tumor size for such selection of animals for each time-point, and linear regression analysis from a semi-log plot of such averages against time. Dead mice and mice with no measurable tumor size were treated as missing data and were ignored when calculating the average.

[5] = test system: CDK1-dependent Eg-5 phosphorylation on threonine 927; assay: In-cell Eg-5 phosphorylation (immunoblot); assay type: cell-based, human; conditions: 1 h
Excerpt: as §1, §2
CDK1-dependent Eg-5 phosphorylation on threonine 927 (Thr927phos). Thr927phos was investigated by arresting cells over night in G2/M phase with 25 ng/ml nocodazole (optimized final concentration) followed by treatment with DMSO as control or an appropriate concentration of test compound for 1 hour. Detached as well as adherent cells were collected and lysed with CLB-1 lysis buffer. the lysate cleared by centrifugation and subjected to SDS-PAGE. The proteins were blotted on PVDF membranes and subsequently analyzed by antibodies against total Eg-5 (Becton Dickinson) and Eg-5 Thr927phos (Bio legend). Visualization and estimation of IC50 was conducted as above.

[6] = test system: H460 NSCLC; conditions: H460, 40 mg/kg po q2dx5
Protocol: as §3, §4, §5, §6, §7, §8, §9

[7] = test system: CDK9-specific phosphorylation of RNA polymerase II (RNAPII) on serine 2; assay: In-cell RNAPII phosphorylation (immunoblot); assay type: cell-based, human; conditions: 3 h
Protocol: as §2
CDK9-specific phosphorylation of RNA polymerase II (RNAPII) on Serine 2 (Ser2). Asynchronous cells were treated with an appropriate concentration of test compound or DMSO as a control. After 3 h incubation (37° C./5% CO2) cells were lysed with CLB-1 lysis buffer (Zeptosense, Switzerland), the lysate was cleared by centrifugation (10 min, 13000 rpm, RT) and subjected to SDS-PAGE. Total protein was blotted on PVDF membranes and analyzed using antibodies against S2-phosphorylated RNAPII (H5; Covance) or total RNAPII (N-20; Santa Cruz) as an expression control. Visualization was conducted using secondary Alexa680- or IR800-coupled antibodies (Molecular Probes) against mouse or rabbit Fc tails on the Odyssey-system (Licor). Specific bands were quantified and IC50 values of inhibition of RNAPII phosphorylation were estimated.

With COc1ccc(F)c(F)c1C(=O)c1cnc(NC2CCN(S(C)(=O)=O)CC2)nc1N [Compound R547] the “LCK ± CI (95%) (Td: 1.7 d)” value ([1]; 100 mg/kg po qdx1) was 1.05 ± 0.56, the “Max % BW Loss (d)” value ([1]; 100 mg/kg po qdx1 (planned qdx10), day 9) was 7.5 (9) % and the “Max % TGI (d)” value ([1]; 100 mg/kg po qdx1, day 11) was 68.5 (11) %. It also gave an IC50 ([2]; A2780 cells) of ~0.1 µM, an IC50 ([2]; Colo205 cells) of ~0.1 µM and an IC50 ([2]; HCT116 cells) of ~0.1 µM. For the same compound, the IC50 ([2]; MDA-MB-435 cells) was ~0.3 µM, the IC50 ([2]; RPMI8226 cells) was ~0.3 µM and the IC50 ([2]; Sk-mel-28 cells) was ~0.1 µM. The IC50 [3] was ~10 nM, the “LCK ± CI (95%) (Td: 6.8 d)” value [4] was 0.70 ± 0.28 and the “Max % BW Loss (d)” value ([4]; day 12) was 14.5 (12) %. For the same compound, the “Max % TGI (d)” value ([4]; day 16) was 72.8 (16) %, the IC50 ([5]; A549 cells) was ~0.03 µM and the IC50 ([5]; A2780 cells) was ~0.01 µM. It also gave an IC50 ([5]; Colo205 cells) of ~0.05 µM, an IC50 ([5]; HCT116 cells) of ~0.1 µM and an IC50 ([5]; MDA-MB-435 cells) of ~0.1 µM. The IC50 ([5]; MDA-MB-453 cells) was ~0.1 µM, the IC50 ([5]; RPMI8226 cells) was ~0.05 µM and the IC50 ([5]; Raji cells) was ~0.1 µM. The “LCK ± CI (95%) (Td: 2.6 d)” value [6] was 0.48 ± 0.20 and 0.48, the “Max % BW Loss (d)” value ([6]; day 8) was 1.3 (8) % and the “Max % TGI (d)” value ([6]; day 13) was 47.5 (13) %. The IC50 ([7]; A2780 cells) was ~1 µM, the IC50 ([7]; Colo205 cells) was ~0.5 µM and the IC50 ([7]; HCT116 cells) was ~0.3 µM. The IC50 ([7]; MDA-MB-468 cells) was ~0.3 µM, the IC50 ([7]; RPMI8226 cells) was ~0.5 µM and the IC50 ([7]; Sk-mel-28 cells) was ~0.3 µM.
